Measured values as given in patent US20050209157A1, “Short bioactive peptides and methods for their use” (priority 2001, published 2005).
Like-named read-outs stand apart in the source and are kept apart here. No end group written: not given here.

How the values were obtained:
[1] = tested on: collagen; test: Collagen stimulation, ELISA on fibroblast cell lines; type: cell-based
Experimental: (§1) Fibroblast cell lines were cultured under standard conditions and assayed for collagen and laminin using an ELISA system manufactured by Panvera (Madison, Wis.). Antibodies for collagen and laminin manufactured by Takara Shuzo Co., Ltd Japan. […] The other three peptides tested neither stimulated nor inhibited production (i.e. no effect was observed).

[2] = tested on: Pseudomonas aeruginosa ATCC 9027; test: Antimicrobial assay I, MIC by OD measurement; type: cell-based; settings: 37° C. for 24 hours, absorbance 620 nm
[3] = tested on: Staphylococcus aureus ATCC 6538; test: Antimicrobial assay I, MIC by OD measurement; type: cell-based; settings: 37° C. for 24 hours, absorbance 620 nm
[4] = tested on: yeast (Saccharomyces cerevisiae); test: Antimicrobial assay I, yeast assay in RPMI 1640; type: cell-based; settings: RPMI 1640 media
[5] = tested on: BMKC; test: Anti-cancer assay, MTT, LD50; type: cell-based; settings: BMKC cloned melanoma line, 24 hours with peptide
Description: (§2) Numbers are LD50 values (μg/mL).

[6] = tested on: H1299; test: Anti-cancer assay, MTT, LD50; type: cell-based; settings: 24 hours with peptide, lung large cell carcinoma
Description: as §2

[7] = tested on: HeLaS3; test: Anti-cancer assay, MTT, LD50; type: cell-based; settings: 24 hours with peptide, cervical carcinoma
Description: as §2

[8] = tested on: MCF7; test: Anti-cancer assay, MTT, LD50; type: cell-based; settings: MCF7 breast adenocarcinoma line, MTT, 24 hours with peptide
Description: as §2

[9] = tested on: PC3; test: Anti-cancer assay, MTT, LD50; type: cell-based; settings: 24 hours with peptide, prostate adenocarcinoma
Description: as §2

[10] = tested on: SW480; test: Anti-cancer assay, MTT, LD50; type: cell-based; settings: SW480 colon adenocarcinoma line, 24 hours with peptide
Description: as §2

[11] = tested on: human red blood cells (RBC); test: in vitro; type: cell-based; settings: hemolytic assay, concentration at 50% hemolysis, 1 hour at 37° C.
[12] = tested on: clinical tobramycin resistant strain 960890198-3c; test: Activity against drug resistant strains; type: cell-based; settings: for activity against clinical tobramycin resistant strain: strain 960890198-3c; for activity against tr Pseudomonas 960890198-3c: clinical tobramycin resistant strain, Table 47
Experimental: (§3) Peptides were assayed for their activity against tobramycin sensitive and resistant strains.

[13] = tested on: tobramycin resistant (tr) Pseudomonas ATCC 13096; test: Activity against drug resistant strains; type: cell-based; settings: for activity against tobramycin resistant versus tobramycin sensitive Pseudomonas: ATCC 13096 (tr) compared with ATCC 27853 (ts); for activity against tr Pseudomonas 13096: tobramycin resistant strain, Table 46
Experimental: as §3

[14] = tested on: tobramycin sensitive (ts) Pseudomonas ATCC 27853; test: Activity against drug resistant strains; type: cell-based; settings: tobramycin sensitive strain
Experimental: as §3

[15] = tested on: WI38; settings: MTT, 24 hours with peptide; normal fibroblast line
[16] = in vitro; settings: human, WI38 normal lung fibroblast cells, LD50 WI38, WI38 normal lung fibroblast line, MTT, 24 hours with peptide
[17] = tested on: P. aeruginosa 27853; test: Synergy between doxacycline and peptides, MBC; type: cell-based, Pseudomonas aeruginosa; settings: for MBC, With doxacycline: doxacycline held at 10 ppm; for MBC, Without doxacycline: peptide alone
Description: Synergy between doxacycline and various peptides was investigated against P. aeruginosa 27853. The following table illustrates the beneficial effects of combining doxacycline and the peptides, where the numbers are the minimum bactericidal concentration (MBC; μg/mL). When combined with the peptides, the doxacycline was held at 10 ppm concentration.

[18] = in vitro; type: cell-based, human; settings: human, human red blood cells, pH 7, hemolytic assay, concentration at 50% hemolysis, 1 hour at 37° C.; read-out: LD50
[19] = tested on: P. aeruginosa H374; type: cell-based, Pseudomonas aeruginosa; settings: for FIC Index: 0.5 or less = synergy
Summary of the method: (§4)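 FIC index, computed as 0.25 plus the ratio of combination to single-agent antibiotic MIC, defines synergy when 0.5 or below. Peptide fixed at one quarter MIC while chloramphenicol or nalidixic acid was serially diluted two-fold; antibiotic-alone MICs served as baselines.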

[20] = tested on: P. aeruginosa H774; type: cell-based, Pseudomonas aeruginosa; settings: P. aeruginosa H744; nalidixic acid + peptide at ¼ MIC; 0.5 or less = synergy
Summary of the method: as §4

[21] = tested on: P. aeruginosa; type: cell-based, Pseudomonas aeruginosa; settings: P. aeruginosa H744; MIC of nalidixic acid with peptide at ¼ MIC
Summary of the method: as §4

[22] = tested on: S. aureus (MRSA); type: cell-based, Staphylococcus aureus; settings: mean of three; 16 to 20 hours at 35° C.
[23] = tested on: S. epidermidis C621; type: cell-based, Staphylococcus epidermidis; settings: mean of three; 16 to 20 hours at 35° C.
[24] = tested on: S. pyogenes M76; test: Antimicrobial assays II, NCCLS broth microdilution MIC; type: cell-based, Streptococcus pyogenes; settings: mean of three; 16 to 20 hours at 35° C.
[25] = tested on: S. pyogenes ATCC19615; test: as above; type: cell-based, Streptococcus pyogenes; settings: mean of three, in µg/mL
[26] = tested on: S. pneumoniae C718; test: as above; type: cell-based, Streptococcus pneumoniae; settings: mean of three
[27] = tested on: S. pneumoniae C719; test: as above; type: cell-based, Streptococcus pneumoniae; settings: mean of three, in µg/mL
[28] = tested on: laminin; test: Laminin stimulation, ELISA on fibroblast cell lines; type: cell-based
Experimental: as §1

[29] = tested on: Escherichia coli 25922; test: microbe, parasite or virus in culture
Description: Synergy between peptide Shiva-10 (SEQ ID NO:4) and various antimicrobial agents was investigated against Escherichia coli 25922.
Synergy between tetracycline and various peptides was investigated against Escherichia coli 25922 MBC. […] When combined with the peptides, the concentration of tetracycline was held at 1.5 ppm.

| Compound | Collagen stimulation [1] | paerug9027 (MIC) [2] | staph6538 (MIC) [3] | yeast (MIC or MFC) [4] | LD50 BMKC [5] | H1299 LD50 [6] | HeLaS3 LD50 [7] | LD50 MCF7 [8] | PC3 LD50 [9] | LD50 SW480 [10] | activity against clinical tobramycin resistant strain [12] | activity against tobramycin resistant versus tobramycin sensitive Pseudomonas [13] | activity against tr Pseudomonas 13096 [13] | activity against ts Pseudomonas 27853 ([14]; Table 46) | WI38 LD50 [15] | CC50 at 24 h [16] | HC50 at 1 h [18] | other results |
| --- | --- | --- | --- | --- | --- | --- | --- | --- | --- | --- | --- | --- | --- | --- | --- | --- | --- | --- |
| TGFβ | 60% | – | – | – | – | – | – | – | – | – | – | – | – | – | – | – | – | – |
| FAKLLAKLAKKIL-NH2 [P125] | – | 100 µg/mL | 10 µg/mL | 50 µg/mL | 220 µg/mL | 76 µg/mL | 220 µg/mL | 90 µg/mL | 145 µg/mL | 125 µg/mL | greater activity against clinical tobramycin resistant strain 960890198-3c | greater activity against tobramycin resistant (tr) Pseudomonas ATCC 13096 than against tobramycin sensitive (ts) Pseudomonas ATCC 27853 | 4 | 31 | 90 µg/mL | 90 µg/mL | – | LD50 [11]: > (> indicates greater than 1000) |
| MPKWKVFKKIEKVGRNIRNGIVKAGPAIAVLGEAKALG-OH [SB-37 (P5; SEQ ID NO: 3)] | – | – | – | – | – | – | – | – | – | – | – | – | – | – | – | – | – | MBC, With doxacycline [17]: 30 µg/mL; MBC, Without doxacycline [17]: 200 µg/mL |
| FAKLLKLAAKKLL-NH2 [P56] | – | 5 µg/mL | 200 µg/mL | 50 µg/mL | 205 µg/mL | 370 µg/mL | 300 µg/mL | 500 µg/mL | 435 µg/mL | 215 µg/mL | greater activity against clinical tobramycin resistant strain 960890198-3c | greater activity against tobramycin resistant (tr) Pseudomonas ATCC 13096 than against tobramycin sensitive (ts) Pseudomonas ATCC 27853 | 16 | 125 | 250 µg/mL | 250 µg/mL | 600 µg/mL | MIC Cm-comb. ([19]; MIC of chloramphenicol with peptide at ¼ MIC): 16 µg/mL; MIC Nal-comb. ([19]; MIC of nalidixic acid with peptide at ¼ MIC): 2500 µg/mL; FIC Index ([19]; chloramphenicol + peptide at ¼ MIC): 1.25; FIC Index ([19]; nalidixic acid + peptide at ¼ MIC, FIC=0.25+MIC comb/MIC alone): 0.75; FIC Index [20]: 1.25; MIC Nal-comb. [21]: 624 µg/mL; activity against tr Pseudomonas 960890198-3c [12]: >50; activity against ts Pseudomonas 27853 ([14]; Table 47): 125 |
| FAKLLALALKLKL-NH2 [P94] | 0% | > (> indicates greater than 200 μg/mL) | 10 µg/mL | > (> indicates greater than 200 μg/mL) | 11 µg/mL | – | > (> indicates greater than 1000) | 65 µg/mL | – | – | – | – | – | – | 6 µg/mL | 6 µg/mL | 350 µg/mL | S. aureus (MRSA) MIC [22]: 16 µg/mL; S. epidermidis C621 MIC [23]: 8 µg/mL; S. pyogenes M76 MIC [24]: 8 µg/mL; S. pyogenes MIC [25]: 8; S. pneumoniae MIC [26]: 64 µg/mL; S. pneumoniae MIC [27]: 128; Laminin stimulation [28]: 0% |
| CC(C)C[C@H](NC(=O)[C@H](C)NC(=O)[C@H](CC(C)C)NC(=O)[C@H](CCCCN)NC(=O)[C@H](C)NC(=O)[C@H](CC(C)C)NC(=O)[C@H](CCCCN)NC(=O)[C@H](CCCCN)NC(=O)[C@H](C)NC(=O)[C@H](CC(C)C)NC(=O)[C@H](CCCCN)NC(=O)[C@H](C)NC(=O)[C@H](CC(C)C)NC(=O)[C@H](CCCCN)NC(=O)[C@H](CCCCN)NC(=O)[C@H](C)NC(=O)[C@@H](N)Cc1ccccc1)C(N)=O [FLAK 26AM (P35; SEQ ID NO: 17)] | – | – | – | – | – | – | – | – | – | – | – | – | – | – | – | – | – | MBC, Without tetracycline ([29]; peptide alone): 50 µg/mL; MBC, With tetracycline ([29]; tetracycline held at […]): 20 µg/mL; MBC, With doxacycline [17]: 32 µg/mL; MBC, Without doxacycline [17]: 50 µg/mL |
| C[C@H]1c2cccc(O)c2C(O)=C2C(=O)[C@]3(O)C(O)=C(C(N)=O)C(=O)[C@@H](N(C)C)[C@@H]3[C@@H](O)[C@@H]21 [Doxacycline] | – | – | – | – | – | – | – | – | – | – | – | – | – | – | – | – | – | MBC of doxacycline ([17]; doxacycline itself, printed in column With doxacycline): 100 µg/mL |
| FALALKALKKL-NH2 [P165] | 0% | 25 µg/mL | 10 µg/mL | 25 µg/mL | 240 µg/mL | 56 µg/mL | 400 µg/mL | 360 µg/mL | 340 µg/mL | 240 µg/mL | – | – | – | – | 470 µg/mL | 470 µg/mL | 350 µg/mL | Laminin stimulation [28]: 0% |
| FAKKLAKKLAKAL-NH2 [P74, FAKKLAKKLAKAL-NH2] | – | 5 µg/mL | 15 µg/mL | 100 µg/mL | 460 µg/mL | 670 µg/mL | 260 µg/mL | 465 µg/mL | 660 µg/mL | 340 µg/mL | greater activity against clinical tobramycin resistant strain 960890198-3c | greater activity against tobramycin resistant (tr) Pseudomonas ATCC 13096 than against tobramycin sensitive (ts) Pseudomonas ATCC 27853 | 16 | 125 | 335 µg/mL | 335 µg/mL | – | LD50 [11]: > (> indicates greater than 1000); activity against tr Pseudomonas 960890198-3c [12]: 25; activity against ts Pseudomonas 27853 ([14]; Table 47): 125 |
